No end group written: not given here.
What was measured:
[1] = tested on: 14-3-3 proteins / 25 kDa protein in Jurkat cell lysates; assay: photo-affinity pull down, Jurkat cell lysate, with competition; assay type: binding, human; settings: competitor at 20-, 60- and 100-fold molar excess of biotinylated probe [T20K,W23Bpa]kB1, silver-stained gel
Protocol: Splenocytes or Jurkat cells were lysed with 25 mM Tris-HCl pH 7.4, 40 mM KCl, 2.5 mM MgSO4 2.5 mM CaCl2, 2% (v/v) glycerol, 1 mM EDTA under repeated freeze-thaw cycles and 10 min sonification. All experiments were performed in buffer with 1x complete protease inhibitor cocktail (Hoffman-La Roche, Basel, Switzerland). Cell membranes and debris were pelleted for 30 min at 16,000 × g and the supernatant corresponds to the “soluble cell lysate.” Protein concentration was determined using a bicinchoninic acid assay kit (Thermo Scientific) and DTT (1 mM) was added to keep redox potential constant during binding experiments. Photo-affinity pull down samples were submitted to denaturing sodium dodecyl sulfate polyacrylamide gel electrophoresis (PAGE). For immunoblotting according to earlier published protocols (Gruber et al., [2007]; Bergmayr et al., [2013]) proteins were semi-dry transferred onto a nitrocellulose membrane 0.45 μM (Amersham Protran, GE Healthcare, Austria) using a Fast Semi-dry blotter (Bio-Rad) at 0.25 mA per gel for 1 h. […] Chemo-luminescence signals were detected on an imaging system FluorChem HD2 (Alpha Innotech, CA, United States). […] Pixel quantification was carried out using ImageJ v1.47 (National Institute for Health). […]

[2] = tested on: 14-3-3 proteins / 25 kDa protein band in murine splenocyte lysates; assay: photo-affinity pull down, splenocyte lysate, with competitors; assay type: binding, mouse; settings: competitors at 100-fold molar excess versus bait [T20K,W23Bpa]kB1, in-gel digestion and proteomics
Protocol: Splenocytes or Jurkat cells were lysed with 25 mM Tris-HCl pH 7.4, 40 mM KCl, 2.5 mM MgSO4 2.5 mM CaCl2, 2% (v/v) glycerol, 1 mM EDTA under repeated freeze-thaw cycles and 10 min sonification. All experiments were performed in buffer with 1x complete protease inhibitor cocktail (Hoffman-La Roche, Basel, Switzerland). Cell membranes and debris were pelleted for 30 min at 16,000 × g and the supernatant corresponds to the “soluble cell lysate.” Protein concentration was determined using a bicinchoninic acid assay kit (Thermo Scientific) and DTT (1 mM) was added to keep redox potential constant during binding experiments. Photo-affinity pull down samples were submitted to denaturing sodium dodecyl sulfate polyacrylamide gel electrophoresis (PAGE). For immunoblotting according to earlier published protocols (Gruber et al., [2007]; Bergmayr et al., [2013]) proteins were semi-dry transferred onto a nitrocellulose membrane 0.45 μM (Amersham Protran, GE Healthcare, Austria) using a Fast Semi-dry blotter (Bio-Rad) at 0.25 mA per gel for 1 h. Primary rabbit anti-GFP antibody (1:5,000) was from Invitrogen (A6455), rabbit anti-GST antibody (1:2,500) from Abcam (ab9085), and mouse anti-human calcineurin subunit A antibody (1:2,000) clone BE2.1 from eBioscience. Secondary ECL anti-mouse (NA931V) or ECL anti-rabbit (NA934VS) IgG antibodies (1:10,000) were conjugated with horse radish peroxidase (GE Healthcare). Chemo-luminescence signals were detected on an imaging system FluorChem HD2 (Alpha Innotech, CA, United States). For silver staining protein gels were treated immediately after electrophoresis with fixing solution EtOH/ddH2O/acetic acid 50/40/10% (v/v/v) for 20 min. Gels had to be washed acid free, first with 50% (v/v) EtOH for 10 min and with ddH2O for 2 h. Gels were exposed to sensitization buffer 0.025% Na2S2O3 in ddH2O for 3 min, followed by 2 min wash with ddH2O. Gels were silver loaded using a 0.15% AgNO3 solution for 45 min in the dark. The protein bands were stained in development buffer formaldehyde/Na2CO3 0.04/2% (v/w) under rigorous shaking. The reaction was quenched with 5% (v/v) acetic acid solution and the gels were stored until further processing in the stopping buffer at 4°C. Pixel quantification was carried out using ImageJ v1.47 (National Institute for Health).
Biotin-LC-LC-labeled (ThermoFisher) peptides (1–5 nmoles) with or without (non-biotinylated) competitor (20–100-fold molar excess) were incubated with Jurkat cell or murine splenocyte cell lysates (150–500 μg proteins) for 2 h at 4°C in the presence of protease inhibitors. UV-activation of photo-crosslinking moiety benzophenone was induced by irradiation at 360 nm on ice for 15 min (Stratalinker, Stratagene, CA, United States). […]

EAE disease in mice = settings: cited from earlier work
Description: 14-3-3s are ubiquitous adaptor proteins that are involved in cell signaling, cell cycle progression and apoptosis as well as protein-protein interaction and cellular transport (Aghazadeh and Papadopoulos, [2016]). The 14-3-3 family is often described as a chimera, since knockout of single isoforms may remain without or with minor phenotypic changes due to functional rescue through the recruitment of other family members. […] Many tumor suppressors or oncogenes are regulated by 14-3- ... || Meanwhile, plant-derived cyclotides are recognized for their pharmaceutical potential. […] Additionally, cyclotides are considered as promising templates for the design of stabilized, orally active peptide epitopes (Jagadish and Camarero, [2010]; Craik et al., [2012]). The cystine-knot motif is capable of tolerance to the incorporation of several amino acid long sequences without impacting its endogenous structure and stability. Using this ...

IL-2 in T-lymphocytes = settings: reference not given; cited from earlier work
Description: 14-3-3s are ubiquitous adaptor proteins that are involved in cell signaling, cell cycle progression and apoptosis as well as protein-protein interaction and cellular transport (Aghazadeh and Papadopoulos, [2016]). The 14-3-3 family is often described as a chimera, since knockout of single isoforms may remain without or with minor phenotypic changes due to functional rescue through the recruitment of other family members. […] Many tumor suppressors or oncogenes are regulated by 14-3- ...

Question: With “CGETCVGGTCNTPGCKCSWPVCTRNGLPV (also: bicyclic or more (positions not given here)) [[T20K]kB1, synthetic cyclotide drug candidate, Thr20 to Lys mutant of kalata B1]” as the sequence, how does the “effect of competitor on 25 kDa protein band intensity” value [1] read?
Answer: revealed an effect on the band intensity of a 25 kDa protein

Question: What about the “competition effect for 14-3-3 proteins (order)” value [2] of the same sequence?
Answer: competition effect in the order [T20K]kB1 < [T20K,W23Bpa]kB1 < R18

Question: What about the “progression of typical symptoms in mouse model of multiple sclerosis” value (EAE disease in mice; oral administration, ref Thell et al., 2016) of the same sequence?
Answer: halted the progression of typical symptoms

Question: What about the “symptoms of the EAE disease in mice” value (EAE disease in mice; reported, reference not given) of the same sequence?
Answer: reduce the symptoms of the EAE disease in mice

Question: And the “regulatory cytokines such as IL-2 in T-lymphocytes of treated animals” value (IL-2 in T-lymphocytes)?
Answer: significantly downregulated

From publication PMC5641551, “Chemical Proteomics for Target Discovery of Head-to-Tail Cyclized Mini-Proteins” (Frontiers in Chemistry, 2017)
